Assay [1] addresses full-length MALT1 protein (Strep-MALT1(1-824)-His) (Homo sapiens (Human), UniProt Q9UDY8). The assay is described as follows: MALT1 Biochemical Protease Assay (Ac-LRSR-AMC substrate). Conditions: 10 nM FL MALT1, 200 μM Ac-LRSR-AMC, 4 h at RT; read-out: MALT1_Biochemical activity (Ac-LRSR-amc) IC50. The method in brief:
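Full-length MALT1 pre-incubated with compounds (30 μM to 0.5 nM, 11 threefold steps) for 50 min at RT. After Ac-LRSR-AMC was added, the reaction ran 4 h at RT and AMC fluorescence was read. IC50 and Hill slope from curve fitting against no-enzyme and no-compound controls.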

In assay [2] the test system is IL10 secretion by TMD8 ABC-DLBCL cells. Nature of the assay: Human IL10 Mesoscale assay (TMD-8). Format: cell-based. Conditions: Homo sapiens, TMD8; TMD-8 cells, 24 h. An outline of the steps: (§1)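 After 24 h at 37 °C with test compounds (15 μM down to 58.6 nM, 9 twofold steps, 0.3% DMSO), IL6 and IL10 secreted by 100,000 OCI-LY3 or TMD8 cells per well were measured in supernatants with a Mesoscale immunoassay. Data were scaled between DMSO wells (high) and RN486 treatment (low).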

Assay [3] relates to IL6 secretion by TMD8 ABC-DLBCL cells. The assay is described as follows: Human IL6 Mesoscale assay (TMD-8). As to conditions: Homo sapiens, TMD8; TMD-8 cells, 24 h. The assay is classed as cell-based. An outline of the steps: as §1

Each structure is given as a SMILES string. Some results are limits rather than exact numbers.

Here are results for 22 compounds from US10954214B2 (Janssen Pharmaceutica NV, priority 2016, dated 2021).

full-length MALT1 protein (Strep-MALT1(1-824)-His), sequence (Q9UDY8 whole entry): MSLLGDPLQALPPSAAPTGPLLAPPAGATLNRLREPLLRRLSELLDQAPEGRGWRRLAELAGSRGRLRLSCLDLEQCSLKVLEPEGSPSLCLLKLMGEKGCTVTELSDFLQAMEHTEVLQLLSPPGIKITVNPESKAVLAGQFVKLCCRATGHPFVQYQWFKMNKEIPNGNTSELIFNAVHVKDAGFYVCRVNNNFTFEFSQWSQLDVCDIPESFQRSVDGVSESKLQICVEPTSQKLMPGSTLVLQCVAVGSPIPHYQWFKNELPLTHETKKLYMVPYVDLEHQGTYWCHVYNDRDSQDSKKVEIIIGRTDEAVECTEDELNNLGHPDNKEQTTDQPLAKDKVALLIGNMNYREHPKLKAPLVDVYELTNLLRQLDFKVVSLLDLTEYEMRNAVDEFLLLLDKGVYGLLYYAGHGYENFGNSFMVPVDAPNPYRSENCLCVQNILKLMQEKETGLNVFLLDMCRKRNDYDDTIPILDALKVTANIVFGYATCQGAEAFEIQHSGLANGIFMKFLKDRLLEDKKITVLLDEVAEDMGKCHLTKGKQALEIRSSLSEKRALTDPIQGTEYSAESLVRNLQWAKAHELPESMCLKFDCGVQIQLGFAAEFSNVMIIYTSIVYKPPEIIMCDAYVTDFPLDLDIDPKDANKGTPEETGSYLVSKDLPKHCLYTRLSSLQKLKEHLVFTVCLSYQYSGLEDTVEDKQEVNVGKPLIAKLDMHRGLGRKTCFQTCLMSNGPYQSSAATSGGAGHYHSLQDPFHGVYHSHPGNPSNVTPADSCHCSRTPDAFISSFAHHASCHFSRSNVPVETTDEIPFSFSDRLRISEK

With `NCc1cnnn1-c1ncc(NC(=O)c2cnn(-c3cccc4ncccc34)c2C(F)(F)F)cc1Cl` [Cpd 248, N-(6-(5-(aminomethyl)-1H-1,2,3-triazol-1-yl)-5-chloropyridin-3-yl)-1-(quinolin-5-yl)-5-(trifluoromethyl)-1H-pyrazole-4-carboxamide], the IC50 (in general, the midpoint of a concentration-inhibition curve) in assay [1] amounted to 331 nM; in assay [2], 468 nM; in assay [3], 1510 nM.
For `COC(=O)c1cn(-c2ncc(NC(=O)c3cnn(-c4cccc5ncccc45)c3C(F)(F)F)cc2Cl)nn1` [Cpd 249, methyl 1-(3-chloro-5-(1-(quinolin-5-yl)-5-(trifluoromethyl)-1H-pyrazole-4-carboxamido)pyridin-2-yl)-1H-1,2,3-triazole-4-carboxylate], in that order: 331 nM, 148 nM and 148 nM.
For `Cn1ncc(-c2ncc(NC(=O)c3cnn(-c4cccc5ncccc45)c3C(F)(F)F)cc2C#N)n1` [Cpd 257, N-(5-cyano-6-(2-methyl-2H-1,2,3-triazol-4-yl)pyridin-3-yl)-1-(quinolin-5-yl)-5-(trifluoromethyl)-1H-pyrazole-4-carboxamide], in that order: 234 nM, 646 nM and more than 3200 nM.
The like results for `COC(=O)c1ncc(NC(=O)c2cnn(-c3cccc4ncccc34)c2C(F)(F)F)cc1Cl` [Cpd 258, methyl 3-chloro-5-(1-(quinolin-5-yl)-5-(trifluoromethyl)-1H-pyrazole-4-carboxamido)picolinate] were, in that order, 229 nM, 316 nM and 589 nM.
Turning to `O=C(Nc1cnc(-n2nccn2)c(Cl)c1)c1cnn(-c2ccc(F)c3cccnc23)c1C(F)(F)F` [Cpd 261, N-(5-chloro-6-(2H-1,2,3-triazol-2-yl)pyridin-3-yl)-1-(5-fluoroquinolin-8-yl)-5-(trifluoromethyl)-1H-pyrazole-4-carboxamide], the IC50 is 195 nM in assay [1], 479 nM in assay [2] and 794 nM in assay [3].
The like results for `N#Cc1cc(NC(=O)c2cnn(-c3ncc(F)c4ccccc34)c2C(F)(F)F)cnc1-n1nccn1` [Cpd 263, N-(5-cyano-6-(2H-1,2,3-triazol-2-yl)pyridin-3-yl)-1-(4-fluoroisoquinolin-1-yl)-5-(trifluoromethyl)-1H-pyrazole-4-carboxamide] were, in that order, 191 nM, more than 302 nM and more than 302 nM.
`O=C(Nc1cnc(-n2nccn2)c(Cl)c1)c1cnn(-c2cnc(F)c3ccccc23)c1C(F)(F)F` [Cpd 264, N-(5-chloro-6-(2H-1,2,3-triazol-2-yl)pyridin-3-yl)-1-(1-fluoroisoquinolin-4-yl)-5-(trifluoromethyl)-1H-pyrazole-4-carboxamide]: the IC50 in assay [1] turned out to be 166 nM; in assay [2] it was 36 nM; in assay [3], 123 nM.
The like results for `Cn1nc(-n2ncc(C(=O)Nc3cnc(-n4nccn4)c(C#N)c3)c2C(F)(F)F)c2cccnc21` [Cpd 265, N-(5-cyano-6-(2H-1,2,3-triazol-2-yl)pyridin-3-yl)-1-(1-methyl-1H-pyrazolo[3,4-b]pyridin-3-yl)-5-(trifluoromethyl)-1H-pyrazole-4-carboxamide] were, in that order, 166 nM, 120 nM and more than 1510 nM.
For `COC(=O)c1cc(-c2ncc(NC(=O)c3cnn(-c4cccc5ncccc45)c3C(F)(F)F)cc2C#N)nn1C` [Cpd 267, methyl 3-(3-cyano-5-(1-(quinolin-5-yl)-5-(trifluoromethyl)-1H-pyrazole-4-carboxamido)pyridin-2-yl)-1-methyl-1H-pyrazole-5-carboxylate], in that order: 155 nM, 56 nM and 35 nM.
In the case of `O=C(Nc1cnc(-n2nccn2)c(Cl)c1)c1cnn(-c2nsc3ncccc23)c1C(F)(F)F` [Cpd 279, N-(5-chloro-6-(2H-1,2,3-triazol-2-yl)pyridin-3-yl)-1-(isothiazolo[5,4-b]pyridin-3-yl)-5-(trifluoromethyl)-1H-pyrazole-4-carboxamide], the IC50 in assay [1] was determined as 126 nM; in assay [2], 2750 nM; in assay [3], 3720 nM.
The like results for `N#Cc1cc(NC(=O)c2cnn(-c3cccc4ncccc34)c2C(F)(F)F)cnc1-n1cccc1` [Cpd 280, N-(5-cyano-6-(1H-pyrrol-1-yl)pyridin-3-yl)-1-(quinolin-5-yl)-5-(trifluoromethyl)-1H-pyrazole-4-carboxamide] were, in that order, 126 nM, 2400 nM and 5500 nM.
The like results for `COc1nccc2c(-n3ncc(C(=O)Nc4cnc(-n5nccn5)c(C#N)c4)c3C(F)(F)F)cccc12` [Cpd 281, N-(5-cyano-6-(2H-1,2,3-triazol-2-yl)pyridin-3-yl)-1-(1-methoxyisoquinolin-5-yl)-5-(trifluoromethyl)-1H-pyrazole-4-carboxamide] were, in that order, 123 nM, 3020 nM and 2570 nM.
The like results for `Cc1cc(NC(=O)c2cnn(-c3cccc4ncccc34)c2C(F)(F)F)cnc1-c1nnn(C)n1` [Cpd 305, N-(5-methyl-6-(2-methyl-2H-tetrazol-5-yl)pyridin-3-yl)-1-(quinolin-5-yl)-5-(trifluoromethyl)-1H-pyrazole-4-carboxamide] were, in that order, 62 nM, 7940 nM and more than 15100 nM.
As for `N#Cc1cc(NC(=O)c2cnn(-c3cc(N)nc4ccccc34)c2C(F)(F)F)cnc1-n1nccn1` [Cpd 329, 1-(2-aminoquinolin-4-yl)-N-(5-cyano-6-(2H-1,2,3-triazol-2-yl)pyridin-3-yl)-5-(trifluoromethyl)-1H-pyrazole-4-carboxamide], the IC50 in assay [1] was found to be 661 nM; in assay [2], 1440 nM; in assay [3], 1660 nM.
For `O=C(Nc1ccnc(N2CCOCC2)c1)c1cnn(-c2cccc3c(=O)[nH]ccc23)c1C(F)(F)F` [Cpd 361, N-(2-morpholinopyridin-4-yl)-1-(1-oxo-1,2-dihydroisoquinolin-5-yl)-5-(trifluoromethyl)-1H-pyrazole-4-carboxamide], in that order: 12300 nM, 617 nM and 1260 nM.
The like results for `Cc1cn(-c2nc(C)c(NC(=O)c3cnn(-c4cccc5c(=O)[nH]ccc45)c3C(F)(F)F)cc2Cl)nn1` [Cpd 362, N-(5-chloro-2-methyl-6-(4-methyl-1H-1,2,3-triazol-1-yl)pyridin-3-yl)-1-(1-oxo-1,2-dihydroisoquinolin-5-yl)-5-(trifluoromethyl)-1H-pyrazole-4-carboxamide] were, in that order, 138 nM, 1180 nM and 3470 nM.
The like results for `O=C(Nc1cncc(-n2nccn2)c1)c1cnn(-c2cccc3c(=O)[nH]ccc23)c1C(F)(F)F` [Cpd 363, N-(5-(2H-1,2,3-triazol-2-yl)pyridin-3-yl)-1-(1-oxo-1,2-dihydroisoquinolin-5-yl)-5-(trifluoromethyl)-1H-pyrazole-4-carboxamide] were, in that order, 26300 nM, more than 302 nM and more than 302 nM.
Turning to `CC(=O)c1cc(-n2ncc(C(=O)Nc3cnc(-n4nccn4)c(Cl)c3)c2C(F)(F)F)c2ccccc2n1` [Cpd 375, 1-(2-acetylquinolin-4-yl)-N-(5-chloro-6-(2H-1,2,3-triazol-2-yl)pyridin-3-yl)-5-(trifluoromethyl)-1H-pyrazole-4-carboxamide], the IC50 was 355 nM in assay [1], 85 nM in assay [2] and 102 nM in assay [3].
In the case of `CC(=O)c1nccc2c(-n3ncc(C(=O)Nc4cnc(-n5nccn5)c(Cl)c4)c3C(F)(F)F)cccc12` [Cpd 378, 1-(1-acetylisoquinolin-5-yl)-N-(5-chloro-6-(2H-1,2,3-triazol-2-yl)pyridin-3-yl)-5-(trifluoromethyl)-1H-pyrazole-4-carboxamide], the IC50 in assay [1] stood at 447 nM; in assay [2] it was 182 nM; in assay [3], 389 nM.
For `O=C(Nc1cnc(-n2nccn2)c(Cl)c1)c1cnn(-c2cnc(C3CCN3)c3ccccc23)c1C(F)(F)F` (stereo not drawn) [Cpd 379, 1-(1-(azetidin-2-yl)isoquinolin-4-yl)-N-(5-chloro-6-(2H-1,2,3-triazol-2-yl)pyridin-3-yl)-5-(trifluoromethyl)-1H-pyrazole-4-carboxamide], in that order: 501 nM, 15 nM and 21 nM.
For `O=C(Nc1cnc(-n2nccn2)c(Cl)c1)c1cnn(-c2cccc3nc(C4CCN4)ccc23)c1C(F)(F)F` (stereo not drawn) [Cpd 381, 1-(2-(azetidin-2-yl)quinolin-5-yl)-N-(5-chloro-6-(2H-1,2,3-triazol-2-yl)pyridin-3-yl)-5-(trifluoromethyl)-1H-pyrazole-4-carboxamide], in that order: 4900 nM, 43 nM and 21 nM.
For `NC(=O)c1cc(-n2ncc(C(=O)Nc3cnc(-n4nccn4)c(Cl)c3)c2C(F)(F)F)c2ccccc2n1` [Cpd 386, 4-(4-((5-chloro-6-(2H-1,2,3-triazol-2-yl)pyridin-3-yl)carbamoyl)-5-(trifluoromethyl)-1H-pyrazol-1-yl)quinoline-2-carboxamide], in that order: 107 nM, 21 nM and 56 nM.
